Species: Rattus norvegicus
Test: Open TG-GATES - Regimen: Daily Repeat
Assay type: toxicity, organism-based, Sprague-Dawley
Parameters: regimen Daily Repeat, gender Male, age 6 weeks
Conditions: in vivo, po, route diet; for Hb / Ht / MCH / MCHC / MCV / Plat / RBC / Ret / WBC: tissue Blood; for KIDNEY_L / KIDNEY_R / KIDNEY_TOTAL: tissue Kidney; for LIVER: tissue Liver; for A/G / ALP / ALT / AST / BUN / CRE / Ca / Cl / DBIL / GLC / IP / K / LDH / Na / PL / RALB / TBIL / TC / TG / TP / gamma-GTP: tissue Plasma
[1] = 72 h, dose 0 %, dose level Control, time 3 day
[2] = 72 h, dose 9999 %, dose level High, time 3 day
[3] = […], dose 0 %, dose level Control, time 7 day
[4] = […], dose 0 %, dose level Control, time 14 day
[5] = […], dose 0 %, dose level Control, time 28 day
[6] = […], dose 9999 %, dose level High, time 7 day
[7] = […], dose 9999 %, dose level High, time 14 day
[8] = […], dose 9999 %, dose level High, time 28 day

CC(C)CCC[C@@H](C)[C@H]1CC[C@H]2[C@@H]3CC=C4C[C@@H](O)CC[C@]4(C)[C@H]3CC[C@]12C.C[C@H](CCC(=O)[O-])[C@H]1CC[C@@H]2[C@]1(C)[C@@H](O)C[C@@H]1[C@@]3(C)CC[C@@H](O)C[C@H]3C[C@@H](O)[C@@]21C.[Na+] [cholesterol + sodium cholate]
TERMINAL_BW [1]: 232.1 g | TERMINAL_BW [2]: 241.9 g | Hb [1]: 12.9 g/dL | Ht [1]: 35.6% | MCH [1]: 23.1 pg | MCHC [1]: 36.2% | MCV [1]: 63.7 fL | Plat [1]: 121.7 x10_4/uL | RBC [1]: 558.2 x10_4/ul | Ret [1]: 6.9% | WBC [1]: 5.6 x10_2/uL | Hb [2]: 12.6 g/dL | Ht [2]: 35% | MCH [2]: 22.5 pg | MCHC [2]: 35.9% | MCV [2]: 62.6 fL | Plat [2]: 107.6 x10_4/uL | RBC [2]: 559.2 x10_4/ul | Ret [2]: 7% | WBC [2]: 5.8 x10_2/uL | KIDNEY_L [1]: 1 g | KIDNEY_R [1]: 1 g | KIDNEY_TOTAL [1]: 2 g | KIDNEY_R [2]: 1.1 g | KIDNEY_TOTAL [2]: 2.1 g | LIVER [1]: 10.6 g | LIVER [2]: 12.1 g | A/G [1]: 1 | ALP [1]: 1907.2 IU/L | ALT [1]: 41.8 IU/L | AST [1]: 69 IU/L | BUN [1]: 17.8 mg/dL | CRE [1]: 0.2 mg/dL | Ca [1]: 10.6 mg/dL | Cl [1]: 102.1 meq/L | DBIL [1]: 0 mg/dL | GLC [1]: 176 mg/dL | IP [1]: 7.2 mg/dL | K [1]: 4.3 meq/L | LDH [1]: 113.2 IU/L | Na [1]: 139.7 meq/L | PL [1]: 161.4 mg/dL | RALB [1]: 2.9 g/dL | TBIL [1]: 0 mg/dL | TC [1]: 75 mg/dL | TG [1]: 106.9 mg/dL | TP [1]: 5.7 g/dL | gamma-GTP [1]: 0.9 IU/L | ALP [2]: 2118 IU/L | ALT [2]: 42.4 IU/L | AST [2]: 72.2 IU/L | BUN [2]: 20.4 mg/dL | Ca [2]: 10.8 mg/dL | Cl [2]: 101.4 meq/L | GLC [2]: 182.8 mg/dL | IP [2]: 7.7 mg/dL | K [2]: 4.5 meq/L | LDH [2]: 149.4 IU/L | Na [2]: 139.4 meq/L | PL [2]: 157.4 mg/dL | TC [2]: 187.2 mg/dL | TG [2]: 136.6 mg/dL | TP [2]: 5.9 g/dL | gamma-GTP [2]: 0.8 IU/L | TERMINAL_BW [3]: 274.4 g | TERMINAL_BW [4]: 313.6 g | TERMINAL_BW [5]: 422.8 g | TERMINAL_BW [6]: 281.4 g | TERMINAL_BW [7]: 337.1 g | TERMINAL_BW [8]: 433.7 g | Hb [3]: 13.2 g/dL | Ht [3]: 36.5% | MCH [3]: 22.4 pg | MCHC [3]: 36.1% | MCV [3]: 62.2 fL | Plat [3]: 127.7 x10_4/uL | RBC [3]: 587.8 x10_4/ul | Ret [3]: 5.5% | WBC [3]: 8.6 x10_2/uL | Hb [4]: 12.6 g/dL | Ht [4]: 38.3% | MCH [4]: 19.3 pg | MCHC [4]: 32.8% | MCV [4]: 58.7 fL | Plat [4]: 111.1 x10_4/uL | RBC [4]: 654 x10_4/ul | Ret [4]: 4.2% | WBC [4]: 44.3 x10_2/uL | Hb [5]: 13.3 g/dL | Ht [5]: 39.2% | MCH [5]: 18.8 pg | MCHC [5]: 33.9% | MCV [5]: 55.4 fL | Plat [5]: 101.1 x10_4/uL | RBC [5]: 707.2 x10_4/ul | Ret [5]: 3% | WBC [5]: 55.7 x10_2/uL | Hb [6]: 12.5 g/dL | Ht [6]: 34.9% | MCH [6]: 21.6 pg | MCHC [6]: 35.7% | MCV [6]: 60.7 fL | Plat [6]: 142.4 x10_4/uL | RBC [6]: 574.8 x10_4/ul | Ret [6]: 5.6% | WBC [6]: 7.3 x10_2/uL | Hb [7]: 11.8 g/dL | Ht [7]: 36% | MCH [7]: 19.1 pg | MCHC [7]: 32.7% | MCV [7]: 58.3 fL | Plat [7]: 148.5 x10_4/uL | RBC [7]: 617.4 x10_4/ul | Ret [7]: 4.7% | WBC [7]: 30.6 x10_2/uL | Hb [8]: 13.1 g/dL | Ht [8]: 39% | MCHC [8]: 33.6% | MCV [8]: 55.9 fL | Plat [8]: 116.2 x10_4/uL | RBC [8]: 698.8 x10_4/ul | Ret [8]: 3.2% | WBC [8]: 50.2 x10_2/uL | KIDNEY_L [3]: 1.1 g | KIDNEY_R [3]: 1.1 g | KIDNEY_TOTAL [3]: 2.2 g | KIDNEY_L [4]: 1.2 g | KIDNEY_R [4]: 1.2 g | KIDNEY_TOTAL [4]: 2.3 g | KIDNEY_L [5]: 1.4 g | KIDNEY_R [5]: 1.4 g | KIDNEY_TOTAL [5]: 2.8 g | KIDNEY_L [6]: 1.2 g | KIDNEY_R [6]: 1.2 g | KIDNEY_TOTAL [6]: 2.4 g | KIDNEY_L [7]: 1.3 g | KIDNEY_R [7]: 1.4 g | KIDNEY_TOTAL [7]: 2.6 g | KIDNEY_L [8]: 1.6 g | KIDNEY_R [8]: 1.6 g | KIDNEY_TOTAL [8]: 3.2 g | LIVER [3]: 12.4 g | LIVER [4]: 13.6 g | LIVER [5]: 17.9 g | LIVER [6]: 16.3 g | LIVER [7]: 18.6 g | LIVER [8]: 24.7 g | A/G [3]: 1 | ALP [3]: 1589.8 IU/L | ALT [3]: 34 IU/L | AST [3]: 67.4 IU/L | BUN [3]: 19.6 mg/dL | CRE [3]: 0.2 mg/dL | Ca [3]: 10.4 mg/dL | Cl [3]: 105.2 meq/L | DBIL [3]: 0 mg/dL | GLC [3]: 193.4 mg/dL | IP [3]: 7.3 mg/dL | K [3]: 4.4 meq/L | LDH [3]: 160.6 IU/L | Na [3]: 141.5 meq/L | PL [3]: 154.8 mg/dL | RALB [3]: 2.8 g/dL | TBIL [3]: 0 mg/dL | TC [3]: 75.4 mg/dL | TG [3]: 124.4 mg/dL | TP [3]: 5.7 g/dL | gamma-GTP [3]: 0.9 IU/L | A/G [4]: 1 | ALP [4]: 1612.2 IU/L | ALT [4]: 38.4 IU/L | AST [4]: 79.8 IU/L | BUN [4]: 18.5 mg/dL | CRE [4]: 0.2 mg/dL | Ca [4]: 10.5 mg/dL | Cl [4]: 103.4 meq/L | DBIL [4]: 0.002 mg/dL | GLC [4]: 203.6 mg/dL | IP [4]: 6.5 mg/dL | K [4]: 3.7 meq/L | LDH [4]: 284.8 IU/L | Na [4]: 141.8 meq/L | PL [4]: 139.4 mg/dL | RALB [4]: 2.9 g/dL | TBIL [4]: 0 mg/dL | TC [4]: 62.4 mg/dL | TG [4]: 145.6 mg/dL | TP [4]: 5.8 g/dL | gamma-GTP [4]: 1 IU/L | A/G [5]: 0.8 | ALP [5]: 1365 IU/L | ALT [5]: 31.4 IU/L | AST [5]: 56.2 IU/L | BUN [5]: 17.7 mg/dL | CRE [5]: 0.2 mg/dL | Ca [5]: 10.3 mg/dL | Cl [5]: 103.3 meq/L | DBIL [5]: 0.006 mg/dL | GLC [5]: 210.8 mg/dL | IP [5]: 6.4 mg/dL | K [5]: 4.2 meq/L | LDH [5]: 103.6 IU/L | Na [5]: 139 meq/L | PL [5]: 143.8 mg/dL | RALB [5]: 2.8 g/dL | TBIL [5]: 0 mg/dL | TC [5]: 68.2 mg/dL | TG [5]: 180.9 mg/dL | TP [5]: 6 g/dL | gamma-GTP [5]: 0.9 IU/L | A/G [6]: 0.9 | ALP [6]: 1845.8 IU/L | ALT [6]: 43.4 IU/L | AST [6]: 79.8 IU/L | BUN [6]: 18.6 mg/dL | Ca [6]: 10.7 mg/dL | Cl [6]: 103.2 meq/L | GLC [6]: 190 mg/dL | IP [6]: 7.6 mg/dL | K [6]: 4.5 meq/L | LDH [6]: 179.4 IU/L | Na [6]: 140.8 meq/L | PL [6]: 174 mg/dL | RALB [6]: 3 g/dL | TC [6]: 181 mg/dL | TG [6]: 141.6 mg/dL | TP [6]: 6.2 g/dL | gamma-GTP [6]: 1.1 IU/L | A/G [7]: 0.8 | ALP [7]: 1718.2 IU/L | ALT [7]: 35.4 IU/L | AST [7]: 68 IU/L | BUN [7]: 18.4 mg/dL | Ca [7]: 10.8 mg/dL | Cl [7]: 101.7 meq/L | DBIL [7]: 0 mg/dL | GLC [7]: 200.2 mg/dL | IP [7]: 6.7 mg/dL | K [7]: 4.2 meq/L | LDH [7]: 181.2 IU/L | Na [7]: 141.2 meq/L | PL [7]: 142.8 mg/dL | TC [7]: 158.2 mg/dL | TG [7]: 121.9 mg/dL | TP [7]: 6.5 g/dL | gamma-GTP [7]: 1.1 IU/L | ALP [8]: 1155 IU/L | ALT [8]: 34.6 IU/L | AST [8]: 62.8 IU/L | BUN [8]: 16.6 mg/dL | Ca [8]: 10.7 mg/dL | Cl [8]: 100.9 meq/L | DBIL [8]: 0 mg/dL | GLC [8]: 194 mg/dL | IP [8]: 6.5 mg/dL | K [8]: 3.9 meq/L | LDH [8]: 135 IU/L | Na [8]: 140.2 meq/L | PL [8]: 146.2 mg/dL | RALB [8]: 3 g/dL | TC [8]: 147.6 mg/dL | TG [8]: 120.2 mg/dL | TP [8]: 6.8 g/dL
